Consider 2 compounds from US5486511A, “4-amino-17β-(cyclopropyloxy)androst-4-en-3-one, 4-amino-17β-(cyclopropylamino)androst-4-en-3-one and related compounds as C17-20 lyase and 5α-reductase” (Merrell Dow Pharmaceuticals Inc., priority 1994, dated 1996).

This test addresses T1, human lyase (Homo sapiens, UniProt P05093).
T1 construct: microsomes were isolated from human, cynomolgus monkey, dog, rat or athymic nude mouse testicular tissue; from tissue; host or cells: human testis microsomes (therapeutic orchiectomies)
T1 sequence (P05093 1-508): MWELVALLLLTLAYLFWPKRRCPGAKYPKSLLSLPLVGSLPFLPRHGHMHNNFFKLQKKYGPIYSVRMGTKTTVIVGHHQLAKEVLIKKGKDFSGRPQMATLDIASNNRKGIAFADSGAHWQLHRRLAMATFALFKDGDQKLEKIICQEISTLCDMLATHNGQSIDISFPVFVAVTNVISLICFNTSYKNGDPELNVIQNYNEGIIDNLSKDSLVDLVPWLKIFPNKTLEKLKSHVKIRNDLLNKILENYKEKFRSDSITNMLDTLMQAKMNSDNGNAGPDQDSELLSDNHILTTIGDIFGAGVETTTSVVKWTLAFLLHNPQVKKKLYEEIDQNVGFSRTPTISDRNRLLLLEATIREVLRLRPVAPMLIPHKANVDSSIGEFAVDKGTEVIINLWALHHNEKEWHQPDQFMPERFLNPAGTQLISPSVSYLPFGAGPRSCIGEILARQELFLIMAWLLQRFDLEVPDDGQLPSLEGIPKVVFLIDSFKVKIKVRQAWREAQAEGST
In words: Inhibition of human steroid C17,20 lyase (testicular microsomes). The class given is biochemical. The method, then:
The activity of the present compounds as inhibitors of steroid C17,20 lyase was established using microsomal preparations of the steroid C17,20 lyase enzyme from human or laboratory animal testes. Human testes used for this purpose were obtained from therapeutic orchiectomies. Specifically, microsomes were isolated from human, cynomolgus monkey, dog, rat or athymic nude mouse testicular tissue. The compound to be tested was dissolved in dimethyl sulfoxide and diluted in 0.05M potassium phosphate buffer to give the desired concentrations of the test compound. The potassium phosphate buffer was at pH 7.4 for the human, monkey and dog lyase assays and at pH 7.2 for the rat and athymic nude mouse lyase assays. Assays also contained 1 mM NADPH, 5 mM glucose-6-phosphate, 1 IU/ml glucose-6-phosphate dehydrogenase (an NADPH regenerating system) and microsomal protein in a total volume of 0.2 mL. Control assays contained all components including dimethyl sulfoxide, but with no test compound. All assays were performed in duplicate. For determination of time dependent C17,20 lyase inactivation, the test compound was incubated with 20 to 60 μg/ml microsomal protein, buffer, and the NADPH regenerating system described above at 34° C. for 0 or 40 minutes. Aliquots (180 μl) were then removed and assayed for enzyme activity by addition to tritiated steroid substrate plus unlabeled steroid substrate to give a 200 μl total assay volume, and were subsequently incubated at 34° C. for 6 minutes. For determination of reversible inhibition by the test compound, the reaction was initiated by addition of substrate. The radiolabeled substrate used for human, cynomolgus monkey and dog lyase was [7-^3 H]-17α-hydroxypregnenolone, 11.2 Ci/mmole, 0.2 μCi total activity per assay. Unlabeled 17α-hydroxypregnenolone was added to give a total concentration of 1.0 μM or 0.3 μM for the human and monkey enzymes, and 0.08 μM for the canine enzyme. […] The radiolabeled substrate used for the rodent enzymes were [1,2-^3 H]-17α-hydroxyprogesterone (40-57 Ci/mmol; 0.2 μCi per assay). Unlabeled 17α-hydroxyprogesterone was added to give a total concentration of 0.1 μM for the rat enzyme (Km =0.1 μM) and 0.03 μM (Km =0.03 μM) for the athymic nude mouse enzyme. The total assay volume was 200 μl. The complete assay was incubated at 34° C. for 6 minutes. Each reaction was stopped by the addition of 5 ml of chloroform:methanol (2:1). Carrier steroids representing substrate and products and 0.8 ml of water were also added at this time. The carrier steroids for the human, monkey and dog lyase assays were 17α-hydroxypregnenolone, dehydroepiandrosterone and androstenediol. Carrier steroids for the rodent lyase assays were 17α-hydroxyprogesterone, androstenedione, and testosterone. The steroids were extracted by the method of Moore and Wilson (Methods in Enzymol., eds. O'Malley, B. W. and Hardman, J. G. 36, 1975, p. 466-474), the organic phase containing the steroids was evaporated using nitrogen gas, the residues dissolved in 18% tetrahydrofuran (v/v) in hexane, and the steroids were separated by HPLC on a Si60 (5 um) column (250×4 mm) using a gradient of 18-22% tetrahydrofuran (v/v) in hexane. Radioactivity in the steroid peaks was measured by a Radiomatic Model HS Flo-One detector.
The enzyme activity for each incubate was calculated from the percent conversion of substrate to products, and the results were expressed as percent inhibition of control. […] The Ki and kinact for time dependent inhibitors were determined by graphical analysis of Kitz-Wilson plots. When the compounds of the present invention were tested in the above procedure using human lyase, the following results were observed: […]

Regarding `C[C@]12CC[C@H]3[C@@H](C=CC4=C(N)C(=O)CC[C@@]43C)[C@@H]1CC[C@@H]2OC1CC1` [Compound 1, 4-Amino-17β-(cyclopropyloxy)androsta-4,6-dien-3-one], under “preincubation 0 min”, 1 µM produced 69% inhibition and the inhibition at 10 µM amounted to 95%. For the setting “preincubation 40 min”, this compound returned an inhibition at 1 µM of 84% and an inhibition at 10 µM of 98%.

Consider `C[C@]12CC[C@H]3[C@@H](CCC4=C(N)C(=O)CC[C@@]43C)[C@@H]1CC[C@@H]2OC1CC1` [Compound 2, 4-Amino-17β-(cyclopropyloxy)androst-4-en-3-one], for which the inhibition at 1 µM stood at 79% (preincubation 0 min) and 86% (preincubation 40 min). Also, the inhibition at 10 µM reads like this: (preincubation 0 min) 96%; (preincubation 40 min) 99%.

Broadly, the inhibition is the relative decrease from the control value, in per cent. A higher inhibition goes with a strong effect.
